Reference: PubChem BioAssay (NCI)
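A five-concentration, 48-hour dose response in 96-well plates underlies each endpoint, interpolated linearly between surrounding concentrations. TGI: concentration producing complete growth inhibition.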

What was measured:
Experiment in all cases: NCI tumour cell line growth inhibition, 48 h
SK-MEL-5 melanoma = test system: SK-MEL-5 melanoma
UACC-257 melanoma = test system: UACC-257 melanoma
ACHN renal = test system: ACHN renal
NCI-H226 lung = test system: NCI-H226 lung
TK-10 renal = test system: TK-10 renal
CCRF-CEM leukemia = test system: CCRF-CEM leukemia
SF-295 CNS = test system: SF-295 CNS
OVCAR-3 ovarian = test system: OVCAR-3 ovarian
SR leukemia = test system: SR leukemia
U251 CNS = test system: U251 CNS
M14 melanoma = test system: M14 melanoma
SF-268 CNS = test system: SF-268 CNS
UO-31 renal = test system: UO-31 renal
K-562 leukemia = test system: K-562 leukemia
KM12 colon = test system: KM12 colon
NCI-H460 lung = test system: NCI-H460 lung
T-47D breast = test system: T-47D breast
DU-145 prostate = test system: DU-145 prostate
MCF7 breast = test system: MCF7 breast
RPMI-8226 leukemia = test system: RPMI-8226 leukemia
OVCAR-4 ovarian = test system: OVCAR-4 ovarian
MALME-3M melanoma = test system: MALME-3M melanoma
HCC-2998 colon = test system: HCC-2998 colon
OVCAR-8 ovarian = test system: OVCAR-8 ovarian
HCT-116 colon = test system: HCT-116 colon
HS 578T breast = test system: HS 578T breast
CAKI-1 renal = test system: CAKI-1 renal
EKVX NSCLC = test system: EKVX NSCLC
LOX IMVI melanoma = test system: LOX IMVI melanoma
MOLT-4 leukemia = test system: MOLT-4 leukemia
786-0 renal = test system: 786-0 renal
SNB-19 CNS = test system: SNB-19 CNS
SK-MEL-2 melanoma = test system: SK-MEL-2 melanoma
SW-620 colon = test system: SW-620 colon
NCI-H23 lung = test system: NCI-H23 lung
HL-60(TB) leukemia = test system: HL-60(TB) leukemia
COLO 205 colon = test system: COLO 205 colon
NCI/ADR-RES ovarian = test system: NCI/ADR-RES ovarian
HCT-15 colon = test system: HCT-15 colon
HT29 colon = test system: HT29 colon
SK-OV-3 ovarian = test system: SK-OV-3 ovarian
IGROV1 ovarian = test system: IGROV1 ovarian
SF-539 CNS = test system: SF-539 CNS
OVCAR-5 ovarian = test system: OVCAR-5 ovarian
SN12C renal = test system: SN12C renal
MDA-MB-231 breast = test system: MDA-MB-231 breast
MDA-MB-435 = test system: MDA-MB-435
UACC-62 melanoma = test system: UACC-62 melanoma
HOP-92 NSCLC = test system: HOP-92 NSCLC
A549 NSCLC = test system: A549 NSCLC
MDA-N = test system: MDA-N
SK-MEL-28 melanoma = test system: SK-MEL-28 melanoma
PC-3 prostate = test system: PC-3 prostate
HOP-62 NSCLC = test system: HOP-62 NSCLC
RXF 393 renal = test system: RXF 393 renal

`Oc1c(N2CCCCC2)cc(-c2cc(N3CCCCC3)c(O)c3ccccc23)c2ccccc12` was tested, and the TGI (SK-MEL-5 melanoma) was 34.6 µM, the TGI (UACC-257 melanoma) was 28.5 µM and the TGI (ACHN renal) was > 100 µM. The TGI (NCI-H226 lung) was > 100 µM, the TGI (TK-10 renal) was > 100 µM and the TGI (CCRF-CEM leukemia) was > 100 µM. The TGI (SF-295 CNS) was > 100 µM, the TGI (OVCAR-3 ovarian) was > 100 µM and the TGI (SR leukemia) was 16.2 µM. The TGI (U251 CNS) was > 100 µM, the TGI (M14 melanoma) was 32 µM and the TGI (SF-268 CNS) was > 100 µM. The TGI (UO-31 renal) was > 100 µM, the TGI (K-562 leukemia) was > 100 µM and the TGI (KM12 colon) was > 100 µM. The TGI (NCI-H460 lung) was > 100 µM, the TGI (T-47D breast) was > 100 µM and the TGI (DU-145 prostate) was 49 µM. For the same compound, the TGI (MCF7 breast) was 59.2 µM, the TGI (RPMI-8226 leukemia) was > 100 µM and the TGI (OVCAR-4 ovarian) was 44.9 µM. The TGI (MALME-3M melanoma) was 24.3 µM, the TGI (HCC-2998 colon) was > 100 µM and the TGI (OVCAR-8 ovarian) was > 100 µM. The TGI (HCT-116 colon) was 40.7 µM, the TGI (HS 578T breast) was 72.6 µM and the TGI (CAKI-1 renal) was > 100 µM. For the same compound, the TGI (EKVX NSCLC) was > 100 µM, the TGI (LOX IMVI melanoma) was 73.2 µM and the TGI (MOLT-4 leukemia) was 79.8 µM. For the same compound, the TGI (786-0 renal) was 45 µM, the TGI (SNB-19 CNS) was > 100 µM and the TGI (SK-MEL-2 melanoma) was 91.6 µM. For the same compound, the TGI (SW-620 colon) was 94.2 µM, the TGI (NCI-H23 lung) was 79.7 µM and the TGI (HL-60(TB) leukemia) was > 100 µM. For the same compound, the TGI (COLO 205 colon) was 67.6 µM, the TGI (NCI/ADR-RES ovarian) was > 100 µM and the TGI (HCT-15 colon) was > 100 µM. The TGI (HT29 colon) was 55.5 µM, the TGI (SK-OV-3 ovarian) was > 100 µM and the TGI (IGROV1 ovarian) was > 100 µM. For the same compound, the TGI (SF-539 CNS) was 81.8 µM, the TGI (OVCAR-5 ovarian) was > 100 µM and the TGI (SN12C renal) was > 100 µM. The TGI (MDA-MB-231 breast) was > 100 µM, the TGI (MDA-MB-435) was 23.2 µM and the TGI (UACC-62 melanoma) was 51.6 µM. The TGI (HOP-92 NSCLC) was 70.4 µM, the TGI (A549 NSCLC) was > 100 µM and the TGI (MDA-N) was 33.5 µM. The TGI (SK-MEL-28 melanoma) was 40.9 µM, the TGI (PC-3 prostate) was > 100 µM and the TGI (HOP-62 NSCLC) was > 100 µM. For the same compound, the TGI (RXF 393 renal) was 77.7 µM.
